{"source": "patent US20150259371A1", "about": "“METHODS AND COMPOUNDS FOR INHIBITING GLYCOSYLTRANSFERASES” (SIMON FRASER UNIVERSITY, priority 2010, published 2015)", "key": {"[1]": {"test_system": "anti-O-GlcNAc antibody CTD110.6", "experiment": "Blocking of anti-O-GlcNAc antibody binding to modified nup62", "details": "0-3 mM", "method": "Blocking antibody interactions: Recombinantly modified nup62 was run on a gel and transferred onto nitrocellulose membrane. CTD110.6 at the appropriate dilution was incubated with 0-3 mM Me-GlcNAc or Me-5SGlcNAc for 1 h prior to applying to the membrane overnight at 4° C. The standard procedure for western blots was subsequently followed."}, "[2]": {"test_system": "core (α1,6)-fucosylation in CHO K1 cells", "experiment": "Aleura aurantia lectin blot of CHO K1 cells", "type": "cell-based", "details": "CHO K1, 48 h"}, "[3]": {"test_system": "sialyl-Lewis X (sLeX) expression in HepG2 cells", "experiment": "Immunoblot and lectin blot of HepG2 lysates", "type": "cell-based, human", "method": "More specifically, monolayers of Hep G2 cells were grown to about 75% confluency in DMEM containing 10% FBS before they were switched to serum free media for 10 h. FBS-free conditions were utilized to limit the amount of fucose which could be made available to cells upon degradation of serum glycoproteins. Cells were subsequently exposed to peracetylated 5-thio-L-fucose (5-T-Fuc) in serum free media for 48 h after which the media were collected, gently centrifuged (800 rpm, 10 min, 4° C.) to remove dead cells, and concentrated (˜10-fold) by centrifugal filration (Amicon, NMWCO 3000 daltons). Cells were washed with cold PBS prior to harvesting them in PBS+0.5% SDS. Proteins were solubilised upon sonication (2 blasts, 10 sec, 15% power) and protein concentrations were determined for all samples by the DC protein concentration assay (BioRad). Samples were normalized prior to analysis. Identical amounts of proteins were analyzed for all lectin-blotting experiments. Cell extracts and conditioned media containing secreted proteins were all analyzed on 8% polyacrylamide gels (FIG. 10).\nMonolayers of HepG2 cells were exposed to 50 μM 5-T-Fuc for varying lengths of time before they were harvested as described above. When necessary, fresh media and inhibitors were added after 24 h. Alternatively, cells were exposed to 5-T-Fuc for 24 h after which the media was replaced and cells were harvested at the indicated time-points (FIG. 11)."}, "OGT [4]": {"biological_target": "T1, OGT (Homo sapiens, UniProt O15294)", "T1 construct": "made in house", "T1 sequence (O15294 whole entry)": "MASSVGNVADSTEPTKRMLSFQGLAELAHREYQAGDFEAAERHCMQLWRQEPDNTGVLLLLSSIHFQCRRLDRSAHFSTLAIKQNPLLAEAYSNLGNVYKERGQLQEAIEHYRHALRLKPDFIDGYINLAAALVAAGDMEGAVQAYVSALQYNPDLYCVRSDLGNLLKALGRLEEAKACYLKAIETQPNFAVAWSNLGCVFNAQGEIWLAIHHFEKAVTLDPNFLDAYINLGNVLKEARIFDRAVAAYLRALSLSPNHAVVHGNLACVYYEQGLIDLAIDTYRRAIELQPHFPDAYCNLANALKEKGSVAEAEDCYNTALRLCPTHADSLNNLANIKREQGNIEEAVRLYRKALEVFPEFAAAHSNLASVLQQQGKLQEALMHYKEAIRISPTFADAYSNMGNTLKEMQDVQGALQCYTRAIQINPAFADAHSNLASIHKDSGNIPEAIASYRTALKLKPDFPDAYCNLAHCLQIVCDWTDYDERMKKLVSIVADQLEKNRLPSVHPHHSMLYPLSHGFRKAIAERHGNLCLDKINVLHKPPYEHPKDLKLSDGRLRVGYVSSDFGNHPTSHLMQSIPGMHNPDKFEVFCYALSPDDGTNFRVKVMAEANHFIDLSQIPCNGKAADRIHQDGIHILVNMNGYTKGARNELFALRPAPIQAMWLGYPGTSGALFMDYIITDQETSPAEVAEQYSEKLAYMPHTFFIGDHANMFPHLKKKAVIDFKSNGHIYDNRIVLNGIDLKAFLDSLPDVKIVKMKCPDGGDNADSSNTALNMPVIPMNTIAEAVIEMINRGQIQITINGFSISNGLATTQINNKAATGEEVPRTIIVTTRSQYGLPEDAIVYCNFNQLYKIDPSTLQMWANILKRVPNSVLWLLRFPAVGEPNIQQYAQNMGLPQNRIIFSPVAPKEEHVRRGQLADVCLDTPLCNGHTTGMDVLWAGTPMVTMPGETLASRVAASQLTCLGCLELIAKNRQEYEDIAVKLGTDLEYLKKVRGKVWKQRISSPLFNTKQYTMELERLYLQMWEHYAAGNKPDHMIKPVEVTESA", "details": "literature refs 40, 53; read-out: Km of natural substrate for OGT; cited from earlier work"}, "OGT [5]": {"biological_target": "T1, OGT", "experiment": "OGT transfer: UDP-sugar as donor, nup62 acceptor, UDP production by CE", "type": "biochemical", "method": "Capillary electrophoresis (CE): CE was performed on a ProteomeLab PA800 (Beckman-Coulter) using fused silica capillaries of […]×44 cm (to detector). The running buffer was 40 mM Na2B4O7 (Sigma), pH 9.5, containing 1.0% (wv) polyethylene glycol (MW 20,000; Fluka) and filtered prior to use. The capillary was conditioned by washing with 1 N NaOH (2 min, 20 psi), 18 MΩ H2O (3 min, 20 psi) and running buffer (5 min, 40 psi). After injecting a short (15 nL) H2O plug, samples were electrostatically introduced and pre-concentrated at the anode by applying a potential of -0.5 kV for 10 s according to the field-amplified sample injection technique described by Chien and Burgi^39. […] Electropherograms were derived by measuring the absorbance at 254 (+/−10) nm at a rate of 4 Hz. […]\nOGT transfer: The ability of OGT (which was over-expressed and purified as described in Ref. ^40) to transfer UDP-5SGlcNAc was tested using recombinant nup62 as the acceptor. […] Production of UDP was monitored at 254 nm; the concentration was determined from a standard curve of UDP standards, which were prepared in triplicate using the same procedure as the reactions, at a concentration of between […] Controls in the absence of nup62 were subtracted to account for OGT-catalyzed hydrolysis of the UDP-sugars."}}, "note": "Entries after “also recorded” stand apart in the source; their conditions may differ. Structures can show the parent of a compound that is named as a salt.", "data": [{"compound": "CO[C@H]1S[C@H](CO)[C@@H](O)[C@H](O)[C@H]1NC(C)=O", "note": "[Compound 16, Methyl 2-acetamido-2-deoxy-5-thio-a-D-glucopyranoside]", "values": [{"measurement": "blocking of CTD110.6 binding", "setting": "[1]", "value": "blocks binding almost as well as Me-GlcNAc"}]}, {"compound": "C[C@H](S)[C@@H](O)[C@@H](O)[C@H](O)C=O", "note": "[Compound 5-T-Fuc, 5-thiofucose]", "values": [{"measurement": "core-fucosylated antigens by Aleura aurantia lectin", "setting": "[2]", "value": "no further decrease in lectin reactivity was observed above inhibitor concentrations of 5 μM; also recorded: reduction in core (α1,6)-fucosylation"}, {"measurement": "sLeX expression, time course", "setting": "[3]; HepG2, 50 μM", "value": "reduces sLeX expression in a time-dependant fashion"}, {"measurement": "Aleura aurantia lectin reactivity", "setting": "[3]; HepG2, 48 h", "value": "no decrease in Aleura aurantia lectin reactivity was observed"}, {"measurement": "Maackia amurensis lectin binding", "setting": "[3]; HepG2, 48 h", "value": "dose-dependent increase in Maackia amurensis lectin binding"}, {"measurement": "time to full recovery of sLeX expression after exposure", "setting": "[3]; HepG2, after a 24 h exposure", "value": "≤ 24", "unit": "h"}, {"measurement": "sLeX expression, dose response", "setting": "[3]; HepG2, serum free media, 48 h, anti-CD15s", "value": "significant, dose-dependent decrease in sLe^X expression; also recorded: reduces sialyl-lewis X expression in HepG2 liver cells"}]}, {"compound": "uridine diphospho-N-acetylglucosamine [UDP-GlcNAc]", "values": [{"measurement": "Km", "setting": "OGT [4]", "value": "2 to 7", "unit": "µM"}]}, {"compound": "CC(=O)N[C@@H]1[C@@H](O)[C@H](O)[C@@H](CO)S[C@@H]1OP(=O)(O)OP(=O)(O)OC[C@H]1O[C@@H](n2ccc(=O)[nH]c2=O)[C@H](O)[C@@H]1O", "note": "[UDP-5SGlcNAc, 5′-(2-acetamido-2-deoxy-5-thio-a-D-glucopyranosyl)diphosphate triethylammonium salt]", "values": [{"measurement": "fold worse donor substrate for OGT as compared to UDP-GlcNAc", "setting": "OGT [5]", "value": "approximately 14 fold"}]}]}
